{
  "source": "patent US20070265270A1",
  "about": "“Cinnoline derivatives as phosphodiesterase 10 inhibitors” (priority 2006, published 2007)",
  "data": [
    {"target": "T1, mPDE10A7 (Mus musculus, UniProt Q8CA95)", "T1 sequence (Q8CA95 446-763 limits assumed)": "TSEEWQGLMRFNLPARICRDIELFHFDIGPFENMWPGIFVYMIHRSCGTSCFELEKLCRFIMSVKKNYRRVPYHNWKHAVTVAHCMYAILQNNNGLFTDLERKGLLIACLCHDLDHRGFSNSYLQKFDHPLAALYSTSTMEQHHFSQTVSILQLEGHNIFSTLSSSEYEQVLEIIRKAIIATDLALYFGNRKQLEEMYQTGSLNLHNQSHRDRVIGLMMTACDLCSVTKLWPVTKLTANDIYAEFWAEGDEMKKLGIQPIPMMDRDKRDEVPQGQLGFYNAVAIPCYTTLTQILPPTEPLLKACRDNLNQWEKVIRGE", "experiment": "mPDE10A7 enzyme inhibition (IMAP fluorescence polarization)", "format": "biochemical", "conditions": "Table 3; fluorescein labeled cAMP or cGMP substrate", "protocol": "(§1) Enzyme Activity: To analyze the enzyme activity, 5 μL of serial diluted mPDE10A7 containing lysate were incubated with equal volumes of diluted (100-fold) fluorescein labeled cAMP or cGMP for 30 minutes in MDC HE 96-well assay plates at room temperature. Both the enzyme and the substrates were diluted in the following assay buffer: Tris/HCl (pH 8.0) 50 mM, MgCl2 5 mM, 2-mercaptoethanol 4 mM, BSA 0.33 mg/mL. After incubation, the reaction was stopped by adding 20 μL of diluted (400-fold) binding reagents and was incubated for an hour at room temperature. The plates were counted in an Analyst GT (Molecular Devices) for fluorescence polarization. An IMAP Assay kit (Molecular Device) was used to assess enzyme properties of mPDE10A7. Data were analyzed with SoftMax Pro.\n(§2) Enzyme Inhibition: To check the inhibition profile, 10 μL of serial diluted compounds were incubated with 30 μl of diluted PDE enzymes in a 96-well polystyrene assay plate for 30 minutes at room temperature. After incubation, 5 μL of the compound-enzyme mixture were aliquoted into a MDC HE black plate, mixed with 5 μl of 100-fold diluted fluorescein labeled substrates (cAMP or cGMP), and incubated for 30 minutes at room temperature. The reaction was stopped by adding 20 μL of diluted binding reagents and counted in an Analyst GT for fluorescence polarization. The data were analyzed with SoftMax Pro.", "units": {"IC50": "nM"}, "values": [
      {"smiles": "COc1cc2nncc(N3CCC(c4ccccc4)C3)c2cc1OC", "note": "(racemic) [Cpd 12, 6,7-dimethoxy-4-(3-phenylpyrrolidin-1-yl)cinnoline]", "IC50": 261},
      {"smiles": "COc1cc2nncc(N3CCCC(C(=O)N4CCCC4)C3)c2cc1OC", "note": "(racemic) [Cpd 32, 6,7-Dimethoxy-4-[3-(pyrrolidin-1-ylcarbonyl)piperidin-1-yl]cinnoline]", "IC50": 402},
      {"smiles": "COc1cc2nncc(N3CCCC(Oc4ccccc4)C3)c2cc1OC", "note": "(racemic) [Cpd 37]", "IC50": 113},
      {"smiles": "COc1cc2nncc(N3CCOC(c4ccc5c(c4)CCO5)C3)c2cc1OC", "note": "(racemic) [Cpd 38]", "IC50": 6.49},
      {"smiles": "COc1cc2nncc(N3CCCC(C(=O)N4CCCCC4)C3)c2cc1OC", "note": "(racemic) [Cpd 39]", "IC50": 378},
      {"smiles": "COc1cc2nncc(N3CC(c4ccc(Cl)cc4)OCC3=O)c2cc1OC", "note": "(racemic) [Cpd 40]", "IC50": 427},
      {"smiles": "COc1cccc(C2CN(c3cnnc4cc(OC)c(OC)cc34)C(=O)CO2)c1", "note": "(racemic) [Cpd 52, 4-(6,7-dimethoxycinnolin-4-yl)-6-(3-methoxyphenyl)morpholin-3-one]", "IC50": 310},
      {"smiles": "COc1cc2nncc(N3CCCC(CN4CCCC4=O)C3)c2cc1OC", "note": "(racemic) [Cpd 62, 1-{[1-(6,7-dimethoxycinnolin-4-yl)piperidin-3-yl]methyl}pyrrolidin-2-one]", "IC50": 337},
      {"smiles": "COc1cc2nncc(N3CCOC(c4ccc(OC(F)(F)F)cc4)C3)c2cc1OC", "note": "(racemic) [Cpd 63]", "IC50": 29.2},
      {"smiles": "COc1ccc(C2CN(c3cnnc4cc(OC)c(OC)cc34)CC(=O)N2C)cc1", "note": "(racemic) [Cpd 65]", "IC50": 46.1},
      {"smiles": "COc1cc2nncc(N3CCOC(c4ccc(O)cc4)C3)c2cc1OC", "note": "(racemic) [Cpd 74]", "IC50": 3.84},
      {"smiles": "COc1ccc2cc(C3CN(c4cnnc5cc(OC)c(OC)cc45)CCN3)ccc2c1", "note": "(racemic) [Cpd 86]", "IC50": 1.33},
      {"smiles": "COc1cc2nncc(N3CCOC(c4ccc(C)cc4F)C3)c2cc1OC", "note": "(racemic) [Cpd 88]", "IC50": 57.8},
      {"smiles": "COc1cc2nncc(N3CCNC(c4cccs4)C3)c2cc1OC", "note": "(racemic) [Cpd 93]", "IC50": 7.84},
      {"smiles": "COc1cc2nncc(N3CCNC(c4ccc(N(C)C)cc4)C3)c2cc1OC", "note": "(racemic) [Cpd 94]", "IC50": 1.6},
      {"smiles": "COc1cc2nncc(N3CCOC(c4ccccc4C)C3)c2cc1OC", "note": "(racemic) [Cpd 96]", "IC50": 14.1},
      {"smiles": "COc1ccc(CC2CCN(c3cnnc4cc(OC)c(OC)cc34)C2)cc1", "note": "(racemic) [Cpd 98]", "IC50": 26.6},
      {"smiles": "CC[C@@H]1CN(c2cnnc3cc(OC)c(OC)cc23)C[C@@H](c2ccc(OC)cc2)O1", "note": "(racemic) [Cpd 100]", "IC50": 3.57},
      {"smiles": "COc1cc2nncc(N3CCCC(NC(=O)c4ccccc4F)C3)c2cc1OC", "note": "(racemic) [Cpd 102]", "IC50": 35.1},
      {"smiles": "COc1cc2nncc(N3CCNC(c4cccc5ccccc45)C3)c2cc1OC", "note": "(racemic) [Cpd 103]", "IC50": 12},
      {"smiles": "COc1cc2nncc(N3CCCC(C4CCCCC4)C3)c2cc1OC", "note": "(racemic) [Cpd 104]", "IC50": 263},
      {"smiles": "COc1cc2nncc(N3CCNC(c4cc(OCc5ccccc5)cc(OCc5ccccc5)c4)C3)c2cc1OC", "note": "(racemic) [Cpd 118]", "IC50": 160},
      {"smiles": "COc1cc(OC)cc(C(=O)NC2CCCN(c3cnnc4cc(OC)c(OC)cc34)C2)c1", "note": "(racemic) [Cpd 121]", "IC50": 16.3},
      {"smiles": "COc1cc2nncc(-c3nc4ccccc4o3)c2cc1OC", "note": "[Cpd 1, 4-(1,3-benzoxazol-2-yl)-6,7-dimethoxycinnoline hydroformate]", "IC50": 218},
      {"smiles": "COc1cc2nncc(-n3nc(C(=O)NC4CC4)c4ccccc43)c2cc1OC", "note": "[Cpd 3, N-cyclopropyl-1-(6,7-dimethoxycinnolin-4-yl)-1H-indazole-3-carboxamide hydroformate]", "IC50": 141},
      {"smiles": "COc1cc2nncc(-c3ccc4c(c3)OCCN4C)c2cc1OC", "note": "[Cpd 8, 7-(6,7-dimethoxycinnolin-4-yl)-4-methyl-3,4-dihydro-2H-1,4-benzoxazine]", "IC50": 23},
      {"smiles": "COCCOc1ccc2cnn(-c3cnnc4cc(OC)c(OC)cc34)c2c1", "note": "[Cpd 19, 6,7-Dimethoxy-4-[6-(2-methoxyethoxy)-1H-indazol-1-yl]cinnoline]", "IC50": 140},
      {"smiles": "COc1cc2nncc(-n3ncc4ccc(N5CCOCC5)cc43)c2cc1OC", "note": "[Cpd 21, 6,7-dimethoxy-4-(6-morpholin-4-yl-1H-indazol-1-yl)cinnoline]", "IC50": 554},
      {"smiles": "CCN1CCN(c2cccc3c2cnn3-c2cnnc3cc(OC)c(OC)cc23)CC1", "note": "[Cpd 48]", "IC50": 28.8},
      {"smiles": "COc1cc2nncc(-n3ncc4c(N5CCN(CC6CC6)CC5)cccc43)c2cc1OC", "note": "[Cpd 50, 4-{4-[4-(cyclopropylmethyl)piperazin-1-yl]-1H-indazol-1-yl}-6,7-dimethoxycinnoline]", "IC50": 63.1},
      {"smiles": "COc1cc2nncc(N3CCCC(n4ccccc4=O)C3)c2cc1OC", "note": "(stereo not shown) [Cpd 51]", "IC50": 152},
      {"smiles": "COc1cc2nncc(N3CCCC(c4nc(C)no4)C3)c2cc1OC", "note": "(stereo not shown) [Cpd 56]", "IC50": 190},
      {"smiles": "COc1ccc(C2(O)CCCN(c3cnnc4cc(OC)c(OC)cc34)C2)cc1", "note": "(stereo not shown) [Cpd 64]", "IC50": 19.2},
      {"smiles": "COc1cc2nncc(N3CCC[C@@H](c4ccccc4F)C3)c2cc1OC", "note": "[Cpd 67]", "IC50": 7.01},
      {"smiles": "CCN(C)c1cccc2c1cnn2-c1cnnc2cc(OC)c(OC)cc12", "note": "[Cpd 72]", "IC50": 44},
      {"smiles": "COc1cc2nncc(-n3ncc4c(N5CCCC5)cccc43)c2cc1OC", "note": "[Cpd 73, 6,7-dimethoxy-4-(4-pyrrolidin-1-yl-1H-indazol-1-yl)cinnoline]", "IC50": 96.1},
      {"smiles": "COc1cc2nncc(-c3ccc4c(c3)N(C)C(=O)C4(C)C)c2cc1OC", "note": "[Cpd 76]", "IC50": 18.7},
      {"smiles": "COc1ccc(CNC2CCN(c3cnnc4cc(OC)c(OC)cc34)CC2)cc1", "note": "[Cpd 78, 1-(6,7-dimethoxycinnolin-4-yl)-N-(4-methoxybenzyl)piperidin-4-amine]", "IC50": 1390},
      {"smiles": "COc1cc2nncc(N3CCC(N4CCCC4=O)CC3)c2cc1OC", "note": "[Cpd 85]", "IC50": 286},
      {"smiles": "COc1ccc(N2CCC=C(c3cnnc4cc(OC)c(OC)cc34)C2)cc1", "note": "[Cpd 101]", "IC50": 6.51},
      {"smiles": "COc1cc2nncc(-n3ncc4c(N5CCN(C(C)=O)CC5)cccc43)c2cc1OC", "note": "[Cpd 106]", "IC50": 16},
      {"smiles": "COc1cc2nncc(N3CCCC(N(C)C(=O)c4ccccc4)C3)c2cc1OC", "note": "(stereo not shown) [Cpd 107]", "IC50": 58.4},
      {"smiles": "COc1cc2nncc(N3CCO[C@@H](c4ccc(C)cc4F)C3)c2cc1OC", "note": "[Cpd 110]", "IC50": 2.86},
      {"smiles": "COc1ccc2cc([C@@H]3CN(c4cnnc5cc(OC)c(OC)cc45)CCN3)ccc2c1", "note": "[Cpd 111]", "IC50": 10.3},
      {"smiles": "COc1cc2nncc(-n3ncc4c(Br)cccc43)c2cc1OC", "note": "[Cpd 113, 4-(4-bromo-1H-indazol-1-yl)-6,7-dimethoxycinnoline]", "IC50": 152}
    ]},
    {"target": "T1, mPDE10A7", "experiment": "mPDE10A7 enzyme inhibition (IMAP fluorescence polarization)", "format": "biochemical", "conditions": "Table 4; fluorescein labeled cAMP or cGMP substrate", "protocol": "as §1, §2", "units": {"IC50": "nM"}, "values": [
      {"smiles": "COc1ccc(C2CN(c3cnnc4cc(O)c(OC)cc34)CCO2)cc1", "note": "(racemic) [compound 127]", "IC50": 145}
    ]}
  ]
}
